Article PMC8360279, “Combination of Polygoni Multiflori Radix Praeparata and Acori Tatarinowii Rhizoma Alleviates Learning and Memory Impairment in Scopolamine-Treated Mice by Regulating Synaptic-Related Proteins” (Frontiers in Pharmacology, 2021)
Counter-ions that a name gives are not always drawn.

Key:
[1] = tested on: BDNF, TrkB, ERK, p-ERK, CREB, and p-CREB proteins in the hippocampus; experiment: Western blot of BDNF/TrkB/ERK/CREB signaling axis components in the hippocampus; conditions: scopolamine treatment vs control mice
Procedure: The mice were randomly divided into the following eight groups (n = 12 per group): 1) control (normal feeding); 2) model [scopolamine, 4 mg kg^−1⋅day^−1 by intraperitoneal injection (i.p.)]; 3) PAL [scopolamine, 4 mg kg^−1⋅day^−1 i. p. + PA, 1.56 g kg^−1⋅day^−1 by intragastric administration (i.g.)]; 4) PAH (scopolamine, 4 mg kg^−1⋅day^−1 i. p. + PA, 6.24 g kg^−1⋅day^−1 i. g.); 5) PL (scopolamine, 4 mg kg^−1⋅day^−1 i. p. + PMRP, 0.78 g kg^−1⋅day^−1 i. g.); 6) PH (scopolamine, 4 mg kg^−1⋅day^−1 i. p. + PMRP 3.12 g kg^−1⋅day^−1 i. g.); 7) AL (scopolamine, 4 mg kg^−1⋅day^−1 i. p.+ ATR, 0.78 g kg^−1⋅day^−1 i. g.); and 8) AH (scopolamine, 4 mg kg^−1⋅day^−1 i. p. + ATR, 3.12 g kg^−1⋅day^−1 i. g.). […]
Three mice per group were deeply anesthetized with chloral hydrate (320 mg/kg i. p.) 60 min after the behavioral test and perfused through the ascending aorta with PBS. […] The hippocampus tissue was lysed in radioimmunoprecipitation assay buffer containing protease and phosphatase inhibitors; the protein concentration of the lysate was determined with the Bradford assay. […] After three washes with washing buffer and incubation with secondary antibody (1:3,000) for 2 h, protein bands were detected with SuperSignal West Pico Chemiluminescent Substrate (Solarbio, Beijing, China) and the signal intensity of target protein bands was normalized to that of the loading control (actin).

scopolamine-treated mice = experiment: Morris water maze test in scopolamine-treated mice; conditions: scopolamine 4 mg/kg i.p. (dementia model); starting from day 3; p < 0.001
Procedure: The mice were randomly divided into the following eight groups (n = 12 per group): 1) control (normal feeding); 2) model [scopolamine, 4 mg kg^−1⋅day^−1 by intraperitoneal injection (i.p.)]; 3) PAL [scopolamine, 4 mg kg^−1⋅day^−1 i. p. + PA, 1.56 g kg^−1⋅day^−1 by intragastric administration (i.g.)]; 4) PAH (scopolamine, 4 mg kg^−1⋅day^−1 i. p. + PA, 6.24 g kg^−1⋅day^−1 i. g.); 5) PL (scopolamine, 4 mg kg^−1⋅day^−1 i. p. + PMRP, 0.78 g kg^−1⋅day^−1 i. g.); 6) PH (scopolamine, 4 mg kg^−1⋅day^−1 i. p. + PMRP 3.12 g kg^−1⋅day^−1 i. g.); 7) AL (scopolamine, 4 mg kg^−1⋅day^−1 i. p.+ ATR, 0.78 g kg^−1⋅day^−1 i. g.); and 8) AH (scopolamine, 4 mg kg^−1⋅day^−1 i. p. + ATR, 3.12 g kg^−1⋅day^−1 i. g.). Mice in each group were orally administered PA, PMRP, or ATR every day for 30 days; after the last gavage, scopolamine was intraperitoneally injected and the Morris water maze experiment was conducted 40 min later for 6 days.
Spatial memory was assessed with the Morris water maze test as previously described [Lan et al. (2012)], with slight modifications. […] Each mouse was tested twice a day for 5 days and the latency to reach the platform was recorded. […] The time that the mouse spent in the target quadrant (ie, where the platform was previously hidden) and the number of times it crossed the platform were measured. […]

[2] = tested on: P90RSK and PSD95 in the hippocampus; experiment: Immunohistochemistry of P90RSK and PSD95 in the hippocampus; type: in vivo, Kunming mice; conditions: scopolamine vs control mice
Procedure: The brain was removed and immediately fixed in 4% paraformaldehyde in PBS. […] After quenching endogenous peroxidase and blocking with normal goat serum, the sections were incubated overnight at 4°C with antibodies against P90RSK and PSD95 (both at 1:5,000). The sections were washed with PBS and incubated with secondary antibodies for 2 h at 37°C, and then stained with 3,3′-diaminobenzidine in chromogen solution; they were then counterstained with hematoxylin, dehydrated in ethanol, cleared in xylene, and mounted with Cytoseal (Thermo Fisher Scientific). P90RSK and PSD95 immunoreactivity was measured using Image Pro Plus v6.0 software (Media Cybernetics, Rockville, MD, United States). Brown staining on the cell membrane or in the cytoplasm was represented positive staining, with the staining intensity reflecting the expression levels of P90RSK and PSD95 proteins.

[3] = tested on: neurotransmitter levels in the cerebral cortex of scopolamine-treated mice; experiment: HPLC-MS analysis of neurotransmitter content in mouse cortical tissue; type: in vivo, Kunming mice; conditions: scopolamine injection 4 mg/kg i.p. vs control mice
[4] = Pharmacokinetics in rat plasma after oral administration of PA, PMRP or ATR (HPLC-MS and GC-MS); conditions: for Tmax: rat plasma, mean ± S.D., n = 6; for Plasma concentration after oral PA compared to the level after PMRP or ATR: rats, PA 4.32 g/kg vs PMRP or ATR 2.16 g/kg
Procedure: (§1) Additionally, 18 rats were orally administered PA, PMRP, or ATR once, respectively (6 rats in each group). The doses were 4.32 g/kg for PA, 2.16 g/kg for PMRP or ATR. The whole blood samples were collected at different time points.
(§2) The components of PA were analyzed by HPLC-MS. The samples were separated on a ZORBAX StableBond C18 reversed-phase column (2.1 × 50 mm, 1.8 μm) (Agilent Technologies Co., CA, United States). The autosampler was set at 20 C, and gradient elution was performed with 0.1% formic acid as solvent A and acetonitrile as solvent B. The gradient program was as follows: 0–10 min, 88%–40% A; 10–12 min, 40%–1% A; and 12–15 min, 1% A. The flow rate was set at 0.3 ml min^−1, and the injection volume was 4 μL. The total run time was 15 min for each sample.
(§3) GC-MS analysis was conducted on a 7890A series gas chromatograph coupled to a Model 7,693 autosampler and Model 5975C Inert XL EI MSD with Triple-Axis Detector (Thermo Fisher Scientific). The carrier gas was 99.99% high-purity helium at a flow rate of 1.2 ml/min. Samples were separated on a TG-5MS column (60 × 0.25 mm and 0.25 μm film thickness). The sample volume was 1 μL with a split ratio of 5:1. The oven temperature program was initially set at 100°C for 1 min, then ramped at 10°C/min to 180°C and held for 1 min; ramped at 5°C/min to 210°C and held for 1 min; and ramped at 10°C/min to 260°C and held for 5 min. The total run time was 27 min. The injection port and detector temperatures were 280°C and 300°C, respectively. Electrospray ionization was performed at 70 eV. Selective ion monitoring was set for quantitation with a dwell time of 100 m/ion.
(§4) Male rats (n = 18) were fasted but had free access to water for 12 h prior to administration of PA, PMRP, and ATR (6 rats in each group). Blood samples were collected from the posterior orbital venous plexus of rats before dosing (time 0) and 5, 10, and 30 min and 1, 2, 4, 8, 16, and 24 h after dosing. The samples were immediately centrifuged at 4,500 rpm for 10 min and the separated plasma samples were stored at −80°C until analysis.

[5] = Chen et al., cited from earlier work
in vivo = conditions: male, Sprague-Dawley, rat, po; for Tmax: rat plasma, mean ± S.D., n = 6
Procedure: as §1, §2, §3, §4

ERK1/2/Nrf2/HO-1 pathway = tested on: ERK1/2/Nrf2/HO-1 pathway; design: method as in Lai et al. (2020); conditions: by modulating the ERK1/2/Nrf2/HO-1 pathway; ref Lai et al. (2020); cited from earlier work
[6] = male, Sprague-Dawley, rat, in vivo, po, 4.32 g/kg
Procedure: as §1, §2, §3, §4

[7] = male, Sprague-Dawley, rat, plasma, po, 2.16 g/kg
[8] = male, Sprague-Dawley, rat, plasma, po, 4.32 g/kg
[9] = male, Sprague-Dawley, rat, plasma, po, 4.32 g/kg, Tmax, oral PA extract 4.32 g/kg once
[10] = 4.32 g/kg, oral PA extract 4.32 g/kg once
[11] = oral ATR extract 2.16 g/kg once
[12] = male, Sprague-Dawley, rat, plasma, po, 2.16 g/kg, Tmax, oral ATR extract 2.16 g/kg once
[13] = 2.16 g/kg, oral PMRP extract 2.16 g/kg once
[14] = oral PMRP extract 2.16 g/kg once

Row | Cmax [4, 8] [ng/mL] | Structure (SMILES) | AUC(0-inf) [4, 7] [ng·h/mL] | AUC(0-t) [4, 7] [ng·h/mL] | Cmax [4, 7] [ng/mL] | half-life [4, 7] [h] | AUC(0-inf) [4, 8] [ng·h/mL] | AUC(0-t) [4, 8] [ng·h/mL] | half-life [4, 8] [h] | Tmax [4, 9] [h] | Plasma concentration after oral PA compared to the level after PMRP or ATR [4] | AUC(0-inf) (in vivo; 2.16 g/kg) [ng·h/mL] | AUC(0-t) (in vivo; 2.16 g/kg) [ng·h/mL] | Cmax (in vivo; 2.16 g/kg) [ng/mL] | half-life (in vivo; 2.16 g/kg) [h] | AUC(0-inf) (in vivo; 4.32 g/kg) [ng·h/mL] | AUC(0-t) (in vivo; 4.32 g/kg) [ng·h/mL] | Cmax (in vivo; 4.32 g/kg) [ng/mL] | Tmax (in vivo; [10]) [h] | Tmax [4, 11] [h] | Tmax ([4]; oral PA extract 4.32 g/kg once) [h] | other results
1 | – | CN1[C@@H]2C[C@@H](OC(=O)[C@H](CO)c3ccccc3)C[C@H]1[C@@H]1O[C@@H]12 [Scopolamine, Scopolamine Hydrobromide] | – | – | – | – | – | – | – | – | – | – | – | – | – | – | – | – | – | – | – | Levels of BDNF, TrkB, ERK, p-ERK, CREB and p-CREB proteins in the hippocampus [1]: reduced; Time to find the platform vs controls (scopolamine-treated mice): significantly longer; Immunoreactivity of P90RSK and PSD95 in the hippocampus [2]: reduced; Concentrations of ACh, 5-HT, NE, Epi, Glu and GABA in the cortex [3]: reduced
2 | 708 ± 281 | OCC1OC(Oc2c(O)cc(O)cc2C=Cc2ccc(O)cc2)C(O)C(O)C1O [THSG, 2,3,5,4′-Tetrahydroxystilbene-2-O-β-D-glucoside] | 102 ± 49.7 | 102 ± 49.4 | 147 ± 105 | 0.17 ± 0.136 | 1630 | 1520 | 3.01 ± 3.36 | 0.81 | increased | – | – | – | – | – | – | – | – | – | – | Tmax ([4]; male, Sprague-Dawley, rat, plasma, po, 2.16 g/kg, Tmax, oral PMRP extract 2.16 g/kg once): 0.39 h; Tmax ([4]; oral PA extract 4.32 g/kg once, listed as 2,3,5,4′-Tetrahydroxystilbene-2-O-β-glucoside): 0.806 ± 0.695 h; Tmax ([4]; oral PMRP extract 2.16 g/kg once, listed as 2,3,5,4′-Tetrahydroxystilbene-2-O-β-glucoside): 0.389 ± 0.356 h; Effect on memory ([5]; by modulating ERK1/2 and CREB activation and increasing BDNF and PSD95 levels, ref Hou et al., 2011, Wang et al., Zhou et al., 2012, Shen et al., 2015, 2016): enhanced memory
3 | – | COc1cc(OC)c(OC)cc1C=O [asarylaldehyde] | – | – | – | – | – | – | – | – | increased | 1550 | 1440 | 119 ± 52.2 | 7.18 ± 1.23 | 1970 ± 766 | 1710 ± 503 | 200 ± 45 | 0.43 | 2.208 ± 3.217 | 0.431 ± 0.442 | Tmax (in vivo; 2.16 g/kg, oral ATR extract 2.16 g/kg once): 2.21 h; half-life (in vivo; 4.32 g/kg): 7.38 ± 2.94 h
4 | 24.1 ± 4.99 | C/C=C/c1ccc(OC)c(OC)c1 [cis-methyl isoeugenol] | 123 ± 30 | 93.8 ± 20.4 | 19.4 ± 18.8 | 7.49 ± 2.55 | 129 ± 45.5 | 118 ± 45.2 | 8.1 ± 2.69 | 1.58 | similar | – | – | – | – | – | – | – | – | 3.514 ± 3.753 | 1.583 ± 3.163 | Tmax [4, 12]: 3.51 h
5 | – | Cc1cc(O)c2c(c1)C(=O)c1cc(O)cc(O)c1C2=O [emodin] | – | – | – | – | – | – | – | – | – | 7400 | 847 ± 802 | 370 ± 288 | 3.7 ± 6.83 | 4160 | 1810 ± 934 | 363 ± 122 | 0.47 | – | 0.472 ± 0.748 | Effect on synaptic impairment (ERK1/2/Nrf2/HO-1 pathway): protected against synaptic impairment; Tmax (in vivo; [13]): 2.76 h; half-life (in vivo; 4.32 g/kg): 14 ± 11.8 h; Tmax [4, 14]: 2.764 ± 4.056 h
6 | – | O=C(O)c1cc(O)c(O)c(O)c1 [gallic acid] | – | – | – | – | – | – | – | – | similar | 2700 | 2460 | 216 ± 47.9 | 6.98 ± 2.15 | 1530 | 831 ± 497 | 246 ± 244 | 0.44 | – | 0.444 ± 0.763 | Tmax (in vivo; [13]): 0.69 h; Tmax [4, 14]: 0.694 ± 0.356 h; T1/2 [6]: 19.532 ± 13.369 h
7 | – | C/C=C\c1cc(OC)c(OC)cc1OC [β-asarone] | 1050 | 603 ± 281 | 49.8 ± 16 | 10.7 ± 6.94 | 744 ± 620 | 439 ± 209 | 14 ± 14.8 | 0.35 | similar | – | – | – | – | – | – | – | – | 4.778 ± 3.777 | 0.347 ± 0.351 | Tmax [4, 12]: 4.78 h

Row | Structure (SMILES) | Cmax [4, 8] [ng/mL] | AUC(0-inf) [4, 7] [ng·h/mL] | AUC(0-t) [4, 7] [ng·h/mL] | Cmax [4, 7] [ng/mL] | half-life [4, 7] [h] | AUC(0-inf) [4, 8] [ng·h/mL] | AUC(0-t) [4, 8] [ng·h/mL] | half-life [4, 8] [h] | Tmax [4, 9] [h] | Plasma concentration after oral PA compared to the level after PMRP or ATR [4] | AUC(0-inf) (in vivo; 2.16 g/kg) [ng·h/mL] | AUC(0-t) (in vivo; 2.16 g/kg) [ng·h/mL] | Cmax (in vivo; 2.16 g/kg) [ng/mL] | half-life (in vivo; 2.16 g/kg) [h] | AUC(0-inf) (in vivo; 4.32 g/kg) [ng·h/mL] | AUC(0-t) (in vivo; 4.32 g/kg) [ng·h/mL] | Cmax (in vivo; 4.32 g/kg) [ng/mL] | Tmax (in vivo; [10]) [h] | Tmax [4, 11] [h] | Tmax ([4]; oral PA extract 4.32 g/kg once) [h] | other results
8 | C/C=C/c1cc(OC)c(OC)cc1OC [α-asarone] | 101 ± 30.3 | 1040 | 600 ± 360 | 73.5 ± 25.9 | 11.8 ± 12.6 | 1240 | 1020 | 8.26 ± 2.7 | 0.88 | increased | – | – | – | – | – | – | – | – | 3.542 ± 3.736 | 0.875 ± 0.699 | Tmax [4, 12]: 3.54 h; Effect on learning and memory deficits ([5]; ref Limón et al., 2009, Shin et al., 2014, Li et al., 2019, 2020): improved learning and memory deficits
